According to patent publication US8318914B2, “Elongases and methods for producing polyunsaturated fatty acids in transgenic organisms” (priority 2007, dated 2012):
Like-named read-outs stand apart in the source and are kept apart here.

Tests used:
D9Elo(Ro) = assay type: cell-based, Rhizopus oryzae; settings: 250 μM fatty acid fed to transformed yeast INVSC-1, 12 h induction medium
Experimental: Positive colonies were identified by PCR. […] In parallel, the empty vector pYES2.1/V5-His-TOPO was transformed in the abovedescribed manner into competent yeast cells of the strain INVSC-1. […] The specificity and activity of the gene to be characterized can be determined with reference to the added fatty acids.
(§1) The yeast cells from the main cultures were harvested by centrifugation (100×g, 5 min, 20° C.) and washed with 100 mM NaHCO3, pH 8.0 to remove residual medium and fatty acids. Starting with the yeast cell sediments, fatty acid methyl esters (FAMEs) were prepared by acid methanolysis. To this end, the cell sediments were incubated for one hour at 80° C. together with 2 ml of 1 N methanolic sulfuric acid and 2% (v/v) of dimethoxypropane. The FAMEs were extracted twice with petroleum ether (PE). To remove nonderivatized fatty acids, the organic phases were washed in each case once with 2 ml of 100 mM NaHCO3, pH 8.0 and 2 ml of distilled water. Thereafter, the PE phases were dried with Na2SO4, evaporated under argon and taken up in 100 μl of PE. […] The conditions for the GLC analysis are as follows: the oven temperature was programmed from 50° C. to 250° C. with an increment of 5° C./min and finally 10 min at 250° C. (holding).
(§2) The signals are identified by comparing the retention times with corresponding fatty acid standards (Sigma). […] Biochem. Biophys.

[1] = tested on: yeast strain INVSC-1 with empty vector pYES2.1/V5-His-TOPO; assay: Vector control of Example 5: yeast with empty vector pYES2.1/V5-His-TOPO fed fatty acids; assay type: cell-based; settings: 250 μM fatty acid fed to yeast INVSC-1, 12 h induction medium
Experimental: Plasmid pYES-D9Elo(Ro) was transformed into the yeast strain INVSC-1 (Invitrogen) following the manufacturer's instructions and selected on plates with DOB-U agar on the basis of uracil auxotrophy. Positive colonies were identified by PCR. To this end, in each case 1 μl of defrosted cells, 200 μM dNTPs, 2.5 U Taq polymerase and 100 pmol of each primer were used to carry out in a total volume of 50 μl. The PCR conditions were as follows: first denaturation at 95° C. for 5 minutes, followed by 30 cycles of 30 seconds at 94° C., 1 minute at 55° C. and 2 minutes at 72° C., and a last elongation step for 10 minutes at 72° C. In parallel, the empty vector pYES2.1/V5-His-TOPO was transformed in the abovedescribed manner into competent yeast cells of the strain INVSC-1. Yeast cells with the plasmid pYES-D9Elo(Ro) and pYES2.1/V5-His-TOPO were incubated for 12 h in liquid DOB-U medium at 28° C., 200 rpm, and then for a further 12 h in induction medium (DOB-U+2% (w/v) galactose+2% (w/v) raffinose) and 250 μM of fatty acids added to the medium. The specificity and activity of the gene to be characterized can be determined with reference to the added fatty acids.
The yeast cells from the main cultures were harvested by centrifugation (100×g, 5 min, 20° C.) and washed with 100 mM NaHCO3, pH 8.0 to remove residual medium and fatty acids. Starting with the yeast cell sediments, fatty acid methyl esters (FAMEs) were prepared by acid methanolysis. To this end, the cell sediments were incubated for one hour at 80° C. together with 2 ml of 1 N methanolic sulfuric acid and 2% (v/v) of dimethoxypropane. The FAMEs were extracted twice with petroleum ether (PE). To remove nonderivatized fatty acids, the organic phases were washed in each case once with 2 ml of 100 mM NaHCO3, pH 8.0 and 2 ml of distilled water. Thereafter, the PE phases were dried with Na2SO4, evaporated under argon and taken up in 100 μl of PE. The samples were separated on a DB-23 capillary column (30 m, 0.25 mm, 0.25 μm, Agilent) in a Hewlett-Packard 6850 gas chromatograph equipped with flame ionization detector. The conditions for the GLC analysis are as follows: the oven temperature was programmed from 50° C. to 250° C. with an increment of 5° C./min and finally 10 min at 250° C. (holding).
The signals are identified by comparing the retention times with corresponding fatty acid standards (Sigma). The methodology is described for example in Napier and Michaelson, 2001, Lipids. 36(8):761-766; Sayanova et al., 2001, Journal of Experimental Botany. 52(360):1581-1585, Sperling et al., 2001, Arch. Biochem. Biophys. 388(2):293-298 and Michaelson et al., 1998, FEBS Letters. 439(3):215-218.

D6Elo(Pir) = assay: Yeast feeding assay: elongation of fed fatty acids by yeast expressing pYES-D6Elo(Pir), GC analysis of FAMEs; assay type: cell-based, Pythium irregulare; settings: for Elongation efficiency in percent, pYES-D6Elo(Pir): 250 μM fatty acid fed to transformed yeast INVSC-1, 12 h induction medium, (area product/area substrate + product)*100
Experimental: (§3) Plasmid pYES-d6Elo(Pir) was then transformed into the yeast strain INVSC-1 (Invitrogen) following the manufacturer's instructions and selected on plates with DOB-U agar on the basis of uracil auxotrophy. Positive colonies were identified by PCR. To this end, in each case 1 μl of defrosted cells, 200 μM dNTPs, 2.5 U Taq-polymerase and 100 pmol of each primer were used to carry out in a total volume of 50 μl. The PCR conditions were as follows: first denaturation at 95° C. for 5 minuten, followed by 30 cycles of 30 seconds at 94° C., 1 minute at 55° C. and 2 minutes at 72° C., and a last elongation step for 10 minutes at 72° C. In parallel, the empty vector pYES2.1/V5-His-TOPO was transformed in the abovedescribed manner into competent yeast cells of the strain INVSC-1. Yeast cells with the plasmid pYES-d6Elo(Pir) and pYES2.1/V5-His-TOPO, respectively, were incubated for 12 h in liquid DOB-U medium at 28° C., 200 rpm, and then for a further 12 h in induction medium (DOB-U+2% (w/v) galactose+2% (w/v) raffinose) and 250 μM of fatty acids added to the medium. The specificity and activity of the gene to be characterized can be determined with reference to the added fatty acids.
as §1, §2
(§4) Table 3 describes the reaction of fatty acids by the plasmids which had been introduced into the yeasts. The conversion rates for the various exogenously added fatty acids are indicated in percent elongation efficiency. The blank vector pYES2.1/V5-His-TOPO acts as control for the activity of the gene sequence D6Elo(Pir). Fatty acids which have been formed in the yeasts with the vector pYES-D6Elo(Pir), but not in yeasts with the vector pYES2.1/V5-His-TOPO, can be attributed to the activity of the D6Elo(Pir) translation product.

[2] = tested on: yeast strain INVSC-1 with empty vector pYES2.1/V5-His-TOPO; assay: Vector control of Example 4: yeast with empty vector pYES2.1/V5-His-TOPO fed fatty acids; assay type: cell-based; settings: blank vector control; 250 μM fatty acid fed to yeast INVSC-1, 12 h induction medium
Experimental: as §3, §1, §2, §4

D5Elo(Eg) = assay type: cell-based, Euglena gracilis
Experimental: Plasmid pYES-D5Elo(Eg) was then transformed into the yeast strain INVSC-1 (Invitrogen) following the manufacturer's instructions and selected on plates with DOB-U agar on the basis of uracil auxotrophism. […] In parallel, the empty vector pYES2.1/V5-His-TOPO was transformed in the abovedescribed manner into competent yeast cells of the strain INVSC-1. Yeast cells with the plasmid pYES-D5Elo(Eg) and pYES2.1/V5-His-TOPO were incubated for 12 h in liquid DOB-U medium at 28° C., 200 rpm, and then for a further 12 h in induction medium (DOB-U+2% (w/v) galactose+2% (w/v) raffinose) and 250 μM of fatty acids added to the medium. The specificity and activity of the gene to be characterized can be determined with reference to the added fatty acids. […]
The substrate specificity of D5Elo(Eg) [SEQ ID NO: 8] was determined after expression and feeding of various fatty acids (FIG. 2). […] In FIG. 2A, yeasts were analyzed which had not been fed exogenously added fatty acids. […] In FIG. 2C, the yeast cells were analyzed after transformation with plasmid pYES-D5Elo(Eg) and feeding the fatty acid 20:4Δ5,8,11,14. […] In FIG. 2D, the yeast cells were analyzed after transformation with plasmid pYES-D5Elo(Eg) and feeding the fatty acid 20:5Δ5,8,11,14,17.

[3] = tested on: yeast strain INVSC-1 with empty vector pYES2.1/V5-His-TOPO; assay: Vector control of Example 6: yeast with empty vector pYES2.1/V5-His-TOPO fed fatty acids; assay type: cell-based; settings: 250 μM fatty acid fed to yeast INVSC-1, 12 h induction medium
Experimental: Plasmid pYES-D5Elo(Eg) was then transformed into the yeast strain INVSC-1 (Invitrogen) following the manufacturer's instructions and selected on plates with DOB-U agar on the basis of uracil auxotrophism. Positive colonies were identified by PCR. To this end, in each case 1 μl of defrosted cells, 200 μM dNTPs, 2.5 U Taq polymerase and 100 pmol of each primer were used to carry out in a total volume of 50 μl. The PCR conditions are as follows: first denaturation at 95° C. for 5 minutes, followed by 30 cycles of 30 seconds at 94° C., 1 minute at 55° C. and 2 minutes at 72° C., and a last elongation step for 10 minutes at 72° C. In parallel, the empty vector pYES2.1/V5-His-TOPO was transformed in the abovedescribed manner into competent yeast cells of the strain INVSC-1. Yeast cells with the plasmid pYES-D5Elo(Eg) and pYES2.1/V5-His-TOPO were incubated for 12 h in liquid DOB-U medium at 28° C., 200 rpm, and then for a further 12 h in induction medium (DOB-U+2% (w/v) galactose+2% (w/v) raffinose) and 250 μM of fatty acids added to the medium. The specificity and activity of the gene to be characterized can be determined with reference to the added fatty acids.
The yeast cells from the main cultures were harvested by centrifugation (100×g, 5 min, 20° C.) and washed with 100 mM NaHCO3, pH 8.0 to remove residual medium and fatty acids. […]

Row | SMILES | Elongation efficiency as a percentage, D9Elo(Ro) (D9Elo(Ro)) [%] | Elongation efficiency as a percentage, pYes2.1/V5-His-TOPO [1] [%] | Elongation efficiency in percent, pYES-D6Elo(Pir) (D6Elo(Pir)) [%] | Elongation efficiency in percent, pYES2.1/V5-His-TOPO [2] [%] | Elongation efficiency as a percentage, D5Elo(EG) (D5Elo(Eg)) [%] | Elongation efficiency as a percentage, pYes2.1/V5-His-TOPO [3] [%] | Substrate preference of D6Elo(Pir), in words (D6Elo(Pir); yeast feeding, summary of Table 3) | Elongation efficiency as a percentage, D5Elo(EG) (D5Elo(Eg); 250 μM fatty acid fed to transformed yeast INVSC-1, 12 h induction medium) [%]
1 | CCCCCC/C=C\CCCCCCCC(=O)O [16:1A9] | 36.6 | 2.4 | – | – | – | – | – | –
2 | CCCCCCCC/C=C\CCCCCCCC(=O)O [18:1Δ9, oleic acid] | 8.3 | 0.0 | – | – | – | – | – | –
3 | CCCCCC/C=C\CCCCCCCCCC(=O)O [18:1Δ11, cis-vaccenic acid] | – | – | 28.6 | 0.0 | – | – | – | –
4 | CCCCC/C=C\C/C=C\CCCCCCCC(=O)O [18:2Δ9, 12, linoleic acid] | 19.3 | 0.0 | 11.1 | 1.1 | – | – | – | –
5 | CCCCC/C=C\C/C=C\C/C=C\CCCCC(=O)O [18:3Δ6, 9, 12, γ-linolenic acid] | – | – | 27.1 | 1.3 | 2.9 | 0.9 | – | –
6 | CC/C=C\C/C=C\C/C=C\CCCCCCCC(=O)O [18:3Δ9, 12, 15, linolenic acid] | 49.3 | 0.0 | 19.1 | 1.4 | – | – | – | –
7 | CC/C=C\C/C=C\C/C=C\C/C=C\CCCCC(=O)O [18:4Δ6, 9, 12, 15, stearidonic acid] | – | – | 38.7 | 1.2 | – | – | – | –
8 | CCCCC/C=C\C/C=C\C/C=C\C/C=C\CCCC(=O)O [20:4Δ5, 8, 11, 14, arachidonic acid] | – | – | 6.7 | 0.0 | – | 0.0 | Less activity | 46.1
